Source: patent publication US20230013824A1, “COMPOSITIONS FOR THE TREATMENT OF HYPERKERATOSIS DISORDERS” (Azura Ophthalmics Ltd., priority 2016, published 2023)

Key:
Human stratum corneum = assay: Thiol degradation assay ex vivo in human skin tissue; conditions: 2 hr
Procedure: Then, the mixtures were analyzed for free thiol moieties concentration.
The skin was cleaned, washed with PBS, and then the epidermis was peeled. The epidermis was incubated with 100 mL of 0.005% trypsin (in PBS) at 37° C. overnight. The stratum corneum was washed with HPLC grade water and transferred to a clean Eppendorf tube. The water was evaporated by SpeedVac and the stratum corneum was washed once again with ice cold hexane to exclude residuals lipids in the fraction. The solvent was removed by SpeedVac.
The stratum corneum pieces were weighed in order to determine their dry weight. 50 mg of dried stratum corneum was dissolved in 1M NaOH and mixed thoroughly for 1 hr. Stratum corneum was treated with or without the test items for 2 hr. L-acetylcysteine containing free thiol moieties served as positive control. To isolate the free thiol moieties from the mixture, the samples or blank (50 μl) were incubated with equal volume of TCA (trichloroacetic acid) for 5 min. Then, the tubes were centrifuge for 15 min at 10,000 rpm at room temperature. The pellet was evaluated. Ellman's reagent stock solution (3 mM) was prepared in methanol. […] The 96-well plates were incubated for 5 min at RT, mixed, and the optical absorbance was recorded at 412 nm. A standard calibration curve was read simultaneously without the TCA precipitation step.

HaCaT cells = assay: MTT cell viability assay, dose response and time course; format: cell-based, human; conditions: for reduction of keratinocyte turnover or proliferation rate as determined by MTT cell viability tests: 72 hours
Procedure: Cell viability was measured by MTT assay.
Untreated cells were used as negative controls. […] A proper blank control was subtracted from the measurements.
The assay was carried out in triplicate. Untreated cells were used as negative controls.

HaCaT keratinocyte cells [1] = assay: BrdU ELISA assay of turnover rate (DNA replication); format: cell-based, human; conditions: 48 hr incubation
Procedure: Turnover rate was measured by BrdU. […] Staurosporine served as positive control. Mean±SEM; n=3. *p<0.05 for reduction from untreated control.
HaCaT cells were incubated without or with the indicated concentrations of selenium cysteine for 48 hr. Turnover rate was measured by BrdU. […] Mean±SEM; n=3. *p<0.05 for reduction from untreated control.
To further investigate the impact of selenium methionine on the cells, the DNA replication rate of the cells was monitored by the BrdU assay. […] The assay was carried out in triplicate.
The BrdU ELISA assay was performed according to kit manufacturer instructions. Briefly, during the final 16 hours of culture, BrdU was added to each well. The cells were fixed, permeabilized, and DNA denatured by the addition of buffers. BrdU monoclonal antibody was pipetted into the wells and allowed to bind for one hour. Colorimetric evaluation of the turnover rate was recorded by ELISA reader. The BrdU assay captures a 16 hr window, which gives a wide view on the proliferation rate of the cells.
To further investigate the impact of selenium cysteine on the cells, the DNA replication rate of the cells was monitored by a BrdU incorporation assay. The purpose was to determine the ability of selenium cysteine at selected concentrations and times to reduce HaCaT keratinocytes cells turnover rate. The assay was carried out in triplicates. The positive control was stautosporine (100 nM). The cells were seeded in 6- or 96-well plates in complete growth medium at 37° C. with 5% CO2 under humidified atmosphere. The cells were incubated with or without selenium cysteine for the selected time points and concentrations determined in Example 6. BrdU incorporation was performed at the selected concentration and a 48 hr time point was chosen for the BrdU assay.

HaCaT keratinocyte cells [2] = assay: Caspase-3 apoptosis assay; format: cell-based, human; conditions: HaCaT keratinocytes cell line, 72 hours
Procedure: Apoptosis was measured by the caspase-3 assay. Results are shown as percent of control. Staurosporine (100 nM) served as positive control. Mean±SEM; n=3. *p<0.05 for reduction from untreated control. HaCaT cells were seeded in a 96 well plates in concentration of 0.3×10^6 cells/mL in […] in complete growth medium (DMEM supplemented with 10% FBS and antibiotics). […] The assay was carried out in triplicates. Untreated cells were used as negative controls. At the end of each incubation period, cell viability and the extent of apoptosis were measured by MTT and Caspase-3 assays, respectively. A proper blank control was subtracted from the measurements.

HaCaT keratinocyte cells [3] = assay: Cell cycle analysis by flow cytometry (FACS); format: cell-based, human; conditions: HaCaT cells synchronized by serum deprivation, 24 hr incubation
Procedure: HaCaT keratinocyte cells were synchronized by serum deprivation for 24 hr. […] Cell cycle was measured by FACS analysis. […] Staurosporine (100 nM) served as positive control. Mean±SEM; n=3. *p<0.05 for reduction from untreated control.
BrdU and FACS analyses were performed in one selected concentration. Two time points (24 hr and 48 hr) were chosen for the flow cytometry and one for the BrdU assay. In order to induce culture synchronization, serum-free medium was used prior of BrdU/FACS analyses in the 24 hr treatment groups.
The effect of selenium methionine on cell cycle was analyzed by flow cytometry (FACS). At the end of the treatment, the cells were harvested by trypsinization and counted. Approximately 1.3×10^6 cells were transferred to a new tube, centrifuged for 5 min at 1500 rpm (2-8° C.), and suspended in 0.5 ml of ice cold PBS. Then, the cells were fixed by adding 2.5 ml of 70% ethanol (2-8° C.) in a dropwise manner. The cells were stored at 2-8° C. for 48 hr at this stage. After 30 min of incubation, the samples were washed 3×1 mL PBS and 0.5 mL of ribonuclease stock solution (0.2 mg/mL supplemented with 0.1% (v/v) Triton x-100 in PBS) were added to the cell pellet for 1 hr at rt. This step was performed to ensure only DNA, not RNA, was stained. 0.5 mL of propidium iodide (PI, 100 μg/ml) was added to the samples still suspended in the ribonuclease stock solution. […]

Row | Molecule | elevation in thiol degradation assay releasing free SH moieties (Human stratum corneum) | reduction of keratinocyte turnover or proliferation rate as determined by MTT cell viability tests (HaCaT cells) | effect on proliferation of the cells (DNA replication, BrdU) (HaCaT keratinocyte cells [1]) | activation of caspase-3 apoptosis marker (apoptotic effect) (HaCaT keratinocyte cells [2]) | effect on cell cycle (cell arrest properties) (HaCaT keratinocyte cells [3]) | cell viability (MTT) (HaCaT cells; positive control 0.1%) | reduction of proliferation of keratocytes (BrdU, DNA replication) (HaCaT keratinocyte cells [1])
1 | O=C(O)c1ccccc1O [SA, Salicylic acid] | caused elevation | no dose dependent effect | does not affect the proliferation | significant increase | no cell arrest properties | – | –
2 | CCCCCCCCCCCCOS(=O)(=O)[O-].[Na+] [SDS] | – | – | – | – | – | significantly decreased cell viability | –
3 | CN[C@@H]1C[C@H]2O[C@@](C)([C@@H]1OC)n1c3ccccc3c3c4c(c5c6ccccc6n2c5c31)C(=O)NC4 [staurosporine] | – | – | dose-dependent reduction | – | – | – | –
4 | selenium cysteine | – | significant dose-dependent effect | – | – | – | – | more than 90%
5 | selenium methionine | up to 35% | significant dose-dependent effect | – | significant increase | elongation of the S phase in the cell cycle and lowered M phase | – | up to 60%
